Results on nine molecules are retold here after US20260130879A1 (IMMUNIC AG, priority 2023, published 2026).

One assay concerns the target T1, hDHODH (Homo sapiens, UniProt Q02127).
T1 construct: measured using an N-terminally truncated recombinant hDHODH enzyme
In words: in vitro inhibition of hDHODH. Type of assay: biochemical. How it is done: The in vitro inhibition of hDHODH was measured using an N-terminally truncated recombinant hDHODH enzyme. Briefly, the hDHODH concentration was adjusted in a way that an average slope of approximately 0.2 AU/min served as the positive control (e.g., without inhibitor). The assay mixture contained 60 μM 2,6-dichloroindophenol, 50 μM decylubiquinone and 100 μM dihydroorotate. The hDHODH enzyme with or without at least six different concentrations of the compounds was added and measurements were performed in 50 mM TrisHCl, 150 mM KCl and 0.1% Triton X-100 at pH 8.0 and at 30° C. The reaction was started by adding dihydroorotate and measuring the absorption at 600 nm for 2 min. For the determination of the IC50 values, each data point was recorded in triplicate.

A further assay concerns the target human Nurr1 (Homo sapiens, UniProt P43354). In words: Hybrid Gal4-Nurr1 reporter gene assay in HEK293T cells.
The test system of assay [1] is tyrosine hydroxylase (TH). In words: Nurr1 regulated gene expression of TH in T98G cells (qPCR). The class given is cell-based. The settings on record: 16 h. How it is done: (§1) . After 16 h of incubation the medium was removed, cells were washed with phosphate buffered saline (PBS) and after full aspiration of residual liquids immediately frozen at −80° C., until further procession. Total RNA was isolated using E.Z.N.A.® Total RNA Kit I (Omega Bio-tek. Norcross. USA) following the manufacturer's instructions. RNA concentration and purity was assessed using a NanoDrop™ One UV/VIS spectrophotometer (Thermo Fisher Scientific. Waltham. USA) at 260/280 nm. Right before reverse transcription (RT), RNA was linearized at a concentration of 133 ng/μL at 65° C., for 10 min and then immediately incubated on ice for at least 1 min. Reverse transcription was performed using 2 μg total RNA, 20 U Recombinant RNasin® Ribonuclease Inhibitor (Promega, Mannheim, Germany), 100 U SuperScript IV Reverse Transcriptase including 5× First Strand Buffer and 0.1 M dithiothreitol (Thermo Fisher Scientific, Waltham, USA), 3.75 ng linear acrylamide. […] Quantitative polymerase chain reaction (qPCR) was conducted using an Applied Biosystems™ QuantStudio 1 (Waltham, USA) and a SYBR green based detection method. […] PCR product specificity was evaluated using a melting curve analysis ranging from 65 to 95° C. […]
A general note: In qPCR the cycle at which signal appears reflects the starting amount.

Assay [2] concerns vesicular amino acid transporter 2 (VMAT2). Put plainly: Nurr1 regulated gene expression of VMAT2 in T98G cells (qPCR). Type of assay: cell-based. Conditions: 16 h. How it is done:
as §1

For a further assay, the system named is N2A. Put plainly: Apoptosis assay in N2A cells (TNFα and CHX). Type of assay: cell-based, murine. Conditions: pretreated 1 h, TNFα 50 ng/ml and CHX 20 μg/mL for 6 hours. On the procedure: (§2) Cell viability was assessed by flow cytometry after staining the cells with Annexin V and a live/dead dye. Alive cells are defined as […].
The next assay relates to SH-SY5Y. In words: Apoptosis assay in SH-SY5Y cells (TNFα and CHX). Type of assay: cell-based, human. The settings on record: pretreated 1 h, TNFα 50 ng/ml and CHX 20 μg/mL for 6 hours. How it is done:
as §2

The test system of another assay is BDNF. Put plainly: Induction of BDNF in LPS-stimulated human PBMCs (ELISA). Type of assay: cell-based. Conditions: 3 μM, supernatant 14 h. (In general: ELISA stands for enzyme-linked immunosorbent assay.)
Another assay has as its system Nurr1 target genes. In words: Microarray gene expression in stimulated human PBMCs. Type of assay: cell-based. The settings on record: anti-CD3/anti-CD28 stimulated human PBMCs, 20 h. On the procedure:
Human PBMC isolation was performed similarly as described above. […] Four biological replicates were used per condition. Cells were detached from the cell culture plates by using MACS buffer, were washed with PBS and then resuspended in RLT buffer for subsequent RNA isolation with RNAeasy Mini Kit (Quiagen). 100 ng total RNA per sample were introduced into an RT-IVT reaction. Prior to RT-IVT, the total RNA samples were spiked with in-vitro synthesized polyadenylated transcripts (One-Color RNA Spike-In Mix, Agilent Technologies), which serves as an internal labeling control for linearity, sensitivity and accuracy. The spiked total RNA was reverse transcribed into cDNA and then converted into labeled cRNA by in vitro transcription (Low Input Quick-Amp Labeling Kit One-Color, Agilent Technologies) incorporating Cyanine-3-CTP. All steps were carried out according to the manufacturer's instructions. […] Afterwards, microarrays were washed with increasing stringency using Gene Expression Wash Buffers (Agilent Technologies) followed by drying with acetonitrile (SIGMA). […] Differential gene expression was identified by applying appropriate biostatistics to the data set. GeneSpring GX11 analysis software was used to normalize and analyze the raw data. […] The induced and repressed genes were further characterized for involvement in functional categories (biological processes, molecular functions, cellular components, protein classes and pathways) based on the PANTHER database.

The subject of assay [3] is neurofilament light polypeptide (NFL). Put plainly: Serum neurofilament (NFL) in Phase 2 study in relapsing-remitting multiple sclerosis, patients with no relapses. The class given is in vivo, human. Conditions: after 24 weeks, RRMS patients with no relapses. On the procedure:
[…]. The study was carried out in accordance with current ICH E6 (Good Clinical Practice) guidelines and the EMA Reflection paper for laboratories that perform the analysis or evaluation of clinical trial samples (EMA/INS/GCP/532137/2010, 28 Feb. 2012). The sample analysis was performed on a Meso QuickPlex SQ 120 analyzer by an ECLIA technique using a validated method.
In order to confirm an effect of IMU-838 on the plasma levels of NFL the subgroup of patients with no relapses was investigated

Another assay deals with NFL. The settings on record: EXPAND, 12-month; cited from earlier work.
The next assay relates to RRMS patients. Conditions: 12 weeks or 24 weeks; cited from earlier work.
In another assay the test system is brain lesions. Conditions: animal model of RRMS; cited from earlier work.

Each structure is given as a SMILES string. Entries after “also recorded” stand apart in the source; their conditions may differ. Where a name gives a salt, the structure may show the parent alone.

T1 sequence (Q02127 29-395): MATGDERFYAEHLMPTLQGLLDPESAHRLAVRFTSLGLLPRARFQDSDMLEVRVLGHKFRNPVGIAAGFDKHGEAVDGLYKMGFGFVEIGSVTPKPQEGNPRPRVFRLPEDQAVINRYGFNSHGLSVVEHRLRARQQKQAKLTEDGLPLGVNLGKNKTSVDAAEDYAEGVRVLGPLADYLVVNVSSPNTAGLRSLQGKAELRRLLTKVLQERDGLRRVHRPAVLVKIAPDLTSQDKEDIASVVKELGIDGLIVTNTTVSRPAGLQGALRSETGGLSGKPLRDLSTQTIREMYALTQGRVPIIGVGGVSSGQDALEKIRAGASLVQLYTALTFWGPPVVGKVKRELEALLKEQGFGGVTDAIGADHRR
human Nurr1, sequence (P43354 360-595 limits assumed): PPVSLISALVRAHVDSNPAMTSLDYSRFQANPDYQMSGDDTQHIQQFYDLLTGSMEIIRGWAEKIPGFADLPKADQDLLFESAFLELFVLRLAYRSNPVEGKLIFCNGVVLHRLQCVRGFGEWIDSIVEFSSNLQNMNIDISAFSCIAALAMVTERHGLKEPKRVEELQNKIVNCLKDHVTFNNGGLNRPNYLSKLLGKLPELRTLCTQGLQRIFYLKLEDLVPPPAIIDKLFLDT
Method for human Nurr1: Nurr1 modulation was determined in a Gal4 hybrid reporter gene assays in HEK293T cells (German Collection of Microorganisms and Cell Culture GmbH, DSMZ) using pFR-Luc (Stratagene, La Jolla, CA, USA; reporter), pRL-SV40 (Promega, Madison, WI, USA: internal control) and pFA-CMV-hNurr1-LBD, coding for the hinge region and ligand binding domain of the canonical isoform of human Nurr1. Cells were cultured in Dulbecco's modified Eagle's medium (DMEM), high glucose supplemented with 10% fetal calf serum (FCS), sodium pyruvate (1 mM), penicillin (100 U/mL), and streptomycin (100 μg/mL) at 37° C., and 5% CO2 and seeded in 96-well plates (3×10+ cells/well). […] Firefly luminescence was divided by Renilla luminescence and multiplied by 1000 resulting in relative light units (RLU) to normalize for transfection efficiency and cell growth. Fold activation was obtained by dividing the mean RLU of test compound by the mean RLU of the untreated control. All samples were tested in at least three biologically independent experiments in duplicates. For dose-response curve fitting and calculation of EC50 values, the equation “[Agonist] versus response (three parameters)” was used in GraphPad Prism (version 7.00, GraphPad Software, La Jolla, CA, USA).
Similarly as described in Part A, the Nurr1 modulation was determined in a Gal4 hybrid reporter gene assay at a fixed concentration of 3 μM.

In turn, `C#CCOc1cccc(-c2ccc(NC(=O)c3cscc3C(=O)NCC)cc2)c1` [6/57] came in with an IC50 at hDHODH of more than 10 µM. Further, at human Nurr1, the EC50 was in the range of 1 to 10 µM and the “Nurr1 agonism max. fold activation (range)” value was “+ (+: ≥1.3-fold to <2-fold)”.
The matching figures for `C#CCOc1cccc(-c2ccc(NC(=O)c3cscc3C(=O)NCC)c(F)c2)c1` [6/58]: more than 10 µM, 1 to 10 µM and “+ (+: ≥1.3-fold to <2-fold)”.
Regarding `COc1cccc(-c2ccc(NC(=O)C3=C(C(=O)O)CCC3)c(F)c2)c1` [Example 1, vidofludimus], the “gene expression on tyrosine hydroxylase (TH)” value in assay [1] is listed as “dose-dependent gene expression”. Moreover, the “gene expression on vesicular amino acid transporter 2 (VMAT2)” value in assay [2] is on record as “dose-dependent gene expression”.
In the case of `C#CCOc1cccc(-c2ccc(NC(=O)C3=C(C(=O)O)CCC3)c(F)c2)c1` [Example 3, 2-((3-Fluoro-3′-(prop-2-yn-1-yloxy)-[1,1′-biphenyl]-4-yl)carbamoyl)cyclopent-1-ene-1-carboxylic acid], the “induction of apoptosis, N2A” value in the assay on N2A was “induction of apoptosis was reduced”. Further, the “gene expression on tyrosine hydroxylase (TH)” value in assay [1] is reported as “dose-dependent gene expression”. In addition, in [2], the “gene expression on vesicular amino acid transporter 2 (VMAT2)” value was “dose-dependent activation; also recorded: dose-dependent gene expression”. The “induction of apoptosis, SH-SY5Y” value with SH-SY5Y is recorded as “induction of apoptosis was reduced”.
`COc1cccc(-c2ccc(NC(=O)C3=C(C(=O)O)CCC3)c(F)c2)c1` [IMU-838, vidofludimus calcium]: the BDNF production result in the assay with BDNF is “BDNF is produced”. In the assay with Nurr1 target genes, the “Upregulation A2M” value stood at 1.6, the “Upregulation BHLHE41” value is 1.5, the “Upregulation CFB” value was 2.4 and the “Upregulation HSD11B1” value was found to be 2.5. For the same molecule, in the assay with Nurr1 target genes, the “Upregulation LTA” value came to 2.0, the “Upregulation MARCO” value is 2.6 and the “Upregulation NCAM” value was found to be 1.6. Also, the “mean change of NFL (reduction)” value in assay [3] came to 18%.
Turning to `[2H]C([2H])([2H])Oc1cccc(C23CCC(NC(=O)C4=C(C(=O)O)CCC4)(CC2)CC3)c1` [reference compound], at hDHODH, the IC50 is more than 50 µM. The molecule further showed an EC50 on human Nurr1 of more than 10 µM.
Take `CCc1cc(/C(C)=N/OCc2ccc(C3CCCCC3)c(C(F)(F)F)c2)ccc1CN1CC(C(=O)O)C1` [siponimod]: in the assay with NFL, the “effect on neurofilament, non-active SPMS” value was “little or no effect on neurofilament”.
For `C/C(O)=C(\C#N)C(=O)Nc1ccc(C(F)(F)F)cc1` [teriflunomide, reference compound], in the assay on BDNF, the BDNF production entry is recorded as “no effect”.
As for `COc1cccc(-c2ccc(NC(=O)C3=C(C(=O)O)CCC3)c(F)c2)c1` [vidofludimus calcium, vidofludimus calcium salt dihydrate], in the assay with RRMS patients, the “rate of confirmed disability worsening over time vs placebo” value was “lower rate of confirmed disability worsening” and the “unique active brain lesions vs placebo” value was “significantly fewer unique active brain lesions”. For the same molecule, the “reduction in brain lesions vs control treatment” value in the assay on brain lesions is “greater reduction in brain lesions”.

For orientation: IC50 means the concentration that inhibits the measured activity by half. Low values mean inhibition by little substance, high ones a need for much substance. A word on the EC50: it is the concentration that produces a half-maximal response. The low end stands for greater potency, the high end for weaker potency.
